Assay results published in PMC8868346, “Novel Series of Dual NRF2 Inducers and Selective MAO-B Inhibitors for the Treatment of Parkinson’s Disease” (Antioxidants, 2022).
Like-named read-outs stand apart in the source and are kept apart here.

Assays:
MAO-B [1] = settings: cited from earlier work
IL-1β = IL-1β levels by ELISA in LPS stimulated primary mixed glial cultures; format: cell-based, rat; settings: compound 10 μM; LPS 1 µg/mL 18 h
Experimental: Cells were cultured for 7–10 days before treatment.
Primary glial cells were pre-treated with compounds at the desired concentration for 24 h. Then, treatments were removed and glial cells were incubated with lipopolysaccharide (LPS, 1 μg/mL; Sigma–Aldrich, Spain) in the presence of each compound at the desired concentration for 18 h. Nitrite production was then assessed by modified Griess assay. Briefly, 150 µL of each sample was mixed with 75 µL of 4,4′-diamino-diphenylsulfone (Dapsone) and 75 µL of N-(1-naphthyl)ethylenediamine (Neda). The mixture was incubated at room temperature for 5 min. […] Data were normalized to basal conditions, setting this value as 100% of nitrite production. EC50 values were calculated from dose–response curves obtained from representing percentage of nitrites reduction vs. compound concentration.
Supernatants obtained from mixed primary glial cell cultures were used to determine IL-1β levels by quantitative ELISA kits (Preprotech, R&D Systems-bioNova, Madrid, Spain) following the manufacturer’s instructions. Commercial solution of IL-1β was used to generate a standard curve for sample quantification. Absorbance was measured in a microplate reader SPECTROstar Nano (BMG Labtech) at 405 with 650 nm correction.

[2] = tested on: Mixed primary glial cultures; test: Cytotoxicity in mixed primary glial cultures (MTT); settings: Sprague-Dawley, rat
Experimental: Mixed primary glial cultures were obtained from cerebral cortex of 2–5-day-old Sprague–Dawley rats. Blood vessels and meninges were first removed in Hank’s balanced salt solution (HBSS) and then forebrains were dissociated in DMEM/F12 medium. After mechanical dissociation, filtering, and centrifugation at 800 rpm for 10 min, cells were plated at a density of 30,000 cells/well in DMEM/F12 medium with 20% (v/v) FBS and 1% penicillin/streptomycin (10,000 units). […] After 5 days, medium was substituted by DMEM/F12 medium with 10% (v/v) FBS. Cells were cultured for 7–10 days before treatment.
(§1) Basal absorbance was set to 100% and results were normalized to basal conditions.
(§2) Cytotoxicity. LD50 values in several cell cultures employed
(§3) Table S2. Cytotoxicity elicited by 10-18 compounds in SH-SY5Y, AREc32 and mixed pr imary glial cultures. Viability was measured as MTT reduction in presence of increasing concentrations of der ivatives. LD50 values were calcula ted from dose-response curves. Data are expr essed as mean ± SEM of at least 3 independent experiments.
(§4) 1.3. PAMPA control compounds (BBB permeability)
(§5) Table S3. Pr ediction of the BBB passive permeability of control compounds

SH-SY5Y = settings: human
Experimental: They were recovered by centrifugation at 800 rpm for 10 min. Cells from the third to twelfth passage were seeded at a density of 80,000 cells/well in 96-well plates for the neuroprotection studies.
as §1, §2, §3, §4, §5

NRF2 = NRF2 induction, luciferase activity in AREc32 reporter cells; format: cell-based, human; settings: Homo sapiens; AREc32 cells, 24 h; concentration required to double luciferase activity compared to basal; read-out: CD (µM) NRF2 Induction
Experimental: Cells were used from the third to twelfth passage.
AREc32 cells were stably transfected with the plasmid pGL-8xARE that implements 8 copies of the antioxidant response element (ARE) sequences followed by luciferase reporter gen. Therefore, NRF2 induction can be related to the activation of ARE sequences by measuring luciferase activity in terms of luminescence production. For NRF2 induction experiments, cells were plated in 96 white flat bottom well plates (20,000 cells/well). After 24 h, cells were incubated with selected compounds at the desired concentrations in duplicates for 24 h. The Luciferase Assay System (Promega E1500) was used according to provider protocol and luminescence was quantified in an Orion II microplate luminometer (Berthold, Germany). Fold induction of luciferase activity was normalized to basal conditions. Data were expressed as CD values, which means the concentration needed to duplicate the luciferase activity compared to basal conditions. CD values were calculated from dose–response curves fitted by non-linear regression for each compound after logarithmic transformation of the data using GraphPad Prism 8.0 software.

rat striatal slices = test: Rat striatal slices exposed to rotenone: ROS production; format: cell-based; settings: compound 10 µM, rotenone 10 µM, 4 h
Experimental: Three- to four-month-old Sprague–Dawley rats were decapitated, the brain was removed, and the two brain hemispheres were separated. Each hemisphere was then cut into 300-µm coronal slices using a McIlwain Tissue Chopper (Cavey Laboratory Engineering, Surrey, UK) and separated in a previously oxygenated (95% O2 and 5% CO2) ice-cold Krebs’s dissection buffer (120 mM of NaCl; 2 mM of KCl; 26 mM of NaHCO3; 1.18 mM of KH2PO4; 10 mM of MgSO4; 0.5 mM of CaCl2; 11 mM of glucose; and 200 mM sucrose at pH 7.4) using a Leica SE6 microscope (Leica, Madrid, Spain). Striatum-containing slices were selected and immediately incubated for stabilization in dissection buffer without sucrose, bubbled with 95% O2 and 5% CO2 for 45 min at 34 °C, allowing slices to recover from slicing injury. […] Finally, cell death and the ROS production were measured.
ROS quantification was performed using the fluorescent probe 2,7′-dichlorodihydrofluorescein diacetate (H2DCFDA, λEx/Em = 495/529 nm; Thermo Fisher, Madrid, Spain). Cell death quantification was performed using the fluorescent probe propidium iodide (PI, λEx/Em = 535/617 nm; Thermo Fisher, Madrid, Spain). […] Fluorescence from striatum slices was then recorded for H2DCFDA (λEx/Em = 495/529 nm), PI (λEx/Em = 535/617 nm), and Hoechst (λEx/Em = 350/461 nm), in an inverted Nikon Eclipse T2000-U microscope (Nikon, Tokyo, Japan). […]

AREc32 = tested on: AREc32
Experimental: AREc32 cells, shared by CR Wolf, were grown in Dulbecco’s modified Eagle medium (DMEM) with GlutaMAX (Gibco, Invitrogen, Madrid, Spain), supplemented with 10% (v/v) filtrated fetal bovine serum (FBS; Gibco, Invitrogen, Madrid, Spain), 1% of antibiotics penicillin-streptomycin, and geneticin (0.8 mg/mL G418; Gibco, Invitrogen, Madrid, Spain). […] They were recovered by centrifugation at 800 rpm for 10 min. Cells were used from the third to twelfth passage.
as §1, §2, §3, §4, §5

SH-SY5Y cells [3] = test: Neuroprotection in SH-SY5Y against 6-hydroxydopamine (MTT); format: cell-based, human; settings: 6-OHDA 100 µM; compound 0.1 µM, 24 h pre- and 24 h co-incubation
Experimental: (§6) Cells were seeded at a density of 60,000 cells/well in 96-well transparent plates for 24 h. Then cells were pre-incubated with the corresponding compound at 0.1 μM. After 24 h, the medium was removed and replaced with 1% (v/v) FBS media containing the corresponding compound at 0.1 µM and the selected toxic stimuli, namely a mixture of rotenone and oligomycin A (R/O; 30/10 μM, respectively; Sigma–Aldrich, Spain) or 6-hydroxydopamine (100 µM; Sigma–Aldrich, Spain). […].

SH-SY5Y cells [4] = test: Neuroprotection in SH-SY5Y against rotenone/oligomycin A (MTT); format: cell-based, human; settings: compound 0.1 µM, 24 h pre- and 24 h co-incubation
Experimental: as §6

MAO-B [5] = settings: read-out: IC50 for MAO-B; cited from earlier work
[6] = tested on: blood-brain barrier (passive diffusion); test: Blood–brain barrier permeation assay (PAMPA); settings: PAMPA, pH 7.4
[7] = Blood–brain barrier permeation assay (PAMPA); settings: BBB permeability class from Pe
MAO-B [8] = biological target: T1, MAO-B (Homo sapiens, UniProt P27338); test: MAO-B reversibility assay (pre-incubation times); format: biochemical; settings: 0, 15, 30 min pre-incubation at […] IC50
T1 construct: purchased Sigma–Aldrich
T1 sequence (P27338 1-520): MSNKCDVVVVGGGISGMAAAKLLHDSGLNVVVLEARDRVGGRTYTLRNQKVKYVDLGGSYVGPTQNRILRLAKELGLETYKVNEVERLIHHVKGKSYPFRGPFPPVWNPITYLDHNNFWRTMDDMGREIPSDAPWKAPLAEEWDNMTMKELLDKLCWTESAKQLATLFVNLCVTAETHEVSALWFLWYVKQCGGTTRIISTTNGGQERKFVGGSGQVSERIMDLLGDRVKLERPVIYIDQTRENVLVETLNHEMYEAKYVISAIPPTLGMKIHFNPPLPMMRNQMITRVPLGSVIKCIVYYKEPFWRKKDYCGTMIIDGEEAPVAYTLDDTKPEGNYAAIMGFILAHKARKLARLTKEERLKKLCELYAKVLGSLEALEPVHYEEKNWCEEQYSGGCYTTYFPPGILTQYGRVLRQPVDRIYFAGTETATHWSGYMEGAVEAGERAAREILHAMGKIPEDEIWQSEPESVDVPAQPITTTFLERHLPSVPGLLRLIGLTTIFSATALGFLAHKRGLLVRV

[9] = Oxygen radical absorbance capacity (ORAC) assay; settings: Trolox equivalents, AAPH, fluorescein
Experimental: The ORAC test was performed to evaluate the oxygen free radical scavenger capacity of the compounds. […] Compounds at desired concentrations (0.03, 0.1, 0.3, 1, 3, and 10 µM) were diluted in phosphate-buffered saline (PBS; 10 mM, pH 7.4) at 37 °C and placed in a 96 black flat bottom well plate. […] A fluorescence measurement was done first to determine the basal signal. Then, 25 µL of 2, 2′-azobis-amidinopropane dihydrochloride (AAPH) (12 mM final concentration) was quickly added. All samples were measured in duplicates in three different experiments. […] Results were expressed in terms of Trolox equivalents (T.eq.), obtained by plotting net AUC versus compound concentration, then performing linear regression and normalizing slopes of the compounds considering Trolox as reference.

MAO-A = settings: read-out: IC50 for MAO-A; cited from earlier work
[10] = tested on: nitrite production in mixed primary glial cultures; settings: read-out: EC50 Nitrite Reduction; positive control; cited from earlier work

C(=CCc1ccccc1)Cc1ccccc1 [1,4-diphenyl-2-butene]
Ki (MAO-B [1]): 35000 nM

COc1ccc2[nH]cc(CCNC(C)=O)c2c1 [Melatonin, reference compound]
IL-1β Levels % Reduction (10 μM) (IL-1β): 31.6 ± 7.00% | LD50 (µM) Mixed primary glial cultures [2]: > 30 µM | LD50 (µM) SH-SY5Y (SH-SY5Y): > 100 µM | EC50 (NRF2): > 30 µM | ROS levels (H2DCFDA), rotenone model (rat striatal slices): reduced | LD50 (µM) AREc32 (AREc32; human): > 30 µM | 6-OHDA Protection (%) (SH-SY5Y cells [3]): 88.8% | R/O (30/10 µM) Protection (%) (SH-SY5Y cells [4]): 22.3%

C#CCN[C@@H]1CCc2ccccc21 [Rasagiline, reference compound]
IC50 (MAO-B [5]): […] | Papp at 4 h, 100 µM [6]: 23.5 ± 4.2 ×10⁻⁶ cm/s | PAMPA Prediction [7]: CNS + (CNS + (high BBB permeability): Pe (10^−6 cm s^−1) > 4.0) | LD50 (µM) AREc32 (AREc32; MTT reduction): > 30 µM | MAO-B inhibition reversibility (MAO-B [8]): Irreversible | ORAC (T. eq.) [9]: 0.04 ± 0.02 T. eq. | ORAC (T. eq.) ([9]; listed as rasagiline): no effect | 6-OHDA Protection (%) (SH-SY5Y cells [3]): 77.0% | R/O (30/10 µM) Protection (%) (SH-SY5Y cells [4]): 28.9% | IC50 (MAO-A): […]

C[S+]([O-])CCCCN=C=S (centres unmarked) [Sulforaphane]
EC50 [10]: 1400 ± 300 nM
